The text below walks through data of patent US12438175B2, “Aqueous organic-based electrolyte for redox flow battery” (KEMIWATT, priority 2019, dated 2025).

Values after ≈ are worked out from the molar mass of the structure shown. Structures can show the parent of a compound that is named as a salt.

The conditions of data set [1]: comparative redox active material in negolytes; cited from earlier work.
A short description of data set [2]: Cycling tests of redox flow battery cells in constant power cycling mode.
Data set [3] can be described thus: Cyclic voltammetry / linear sweep voltammetry, electrochemical parameters. The class given is physicochemical. The conditions noted are these: for Peak-to-peak separation ΔEp: 100 mV/s, third cycle. On the procedure:
Cyclic voltammetry experiments were performed at a 100 mV/s scan rate for compounds M3CH, D3CH, D4CH, M3SH, D3SH, M4SH and D4SH in solution at pH 13 (KOH 0.1 M) or pH 14 (KOH 1 M).
The electrochemical experiments were conducted on an electrochemical working station (BioLogic Science Instruments VSP) at 25° C. using a three-electrodes electrochemical cell, where a Pt wire was employed at the counter electrode (CE), an Ag/AgCl/KCl saturated electrode immerged in a 1 M KOH solution protected from the cell by a porous frit glass served as the reference electrode (RE) and a rotating disc electrode (RDE) mounted with a glassy carbon (GC, 7.069 mm^2) disk was used as the working electrode (WE), respectively. The potential was reported relative to the normal hydrogen electrode (NHE), which was converted from the Ag/AgCl reference electrode (0.230 V versus NHE). The ohmic drop between the WE and RE is determined by current interrupt experiments and leads to a value close to 0.7069 Ω·cm^2. All cyclic voltammetry experiments were conducted by alleviating most of this resistance (85%) using the potentiostat manual ohmic drop compensation. Before each electrochemical measurement, the GC disk electrode was polished using SiC P4000 foil.
Each recorded cyclic voltammetry of the reduction and the oxidation process of a compound at a given scan rate is analyzed by measuring ip,a=anodic peak current; ip,c=cathodic peak current; v=scan rate; Ep,a=anodic peak potential; Ep,c=cathodic peak potential; ΔEp=Ep,a−Ep,c; the apparent standard redox potential E^0′=[…].
Linear sweep voltammetry (LSV) using the RDE at various rotation speed (400 up to 1 000 RPM) were performed to determine the averaged half-wave potential E1/2.
The oxidation (DO) and the reduction (DR) diffusion coefficients were calculated using Randles-Sevcik (RS) equation ip=0.4463·n^3/2·F^3/2·A·C·v^1/2·D^1/2·R^−1/2·T^−1/2=Cye·v^1/2·D^1/2, n=number of electrons exchanged during the redox process; F=faradaic number=96485 C·mol^−1; A=electrode active surface; C=redox active molecule concentration; R=gas constant=8.314 J·K^−1·mol^−1; T=bulk temperature=299 K. The experiments are conducted by cyclic voltammetry at various scan rates ranging from 10 mV/s up to 20 V/s.
A graphic of lip,al and lip,cl=f(Cte×v^1/2) is plotted, if the redox process is reversible and diffusion controlled, the peak current should be proportional to the square root of the scan rate. The diffusion coefficients (oxidation and reduction) are then calculated by taking the square of the regression lines slopes. Diffusion coefficients (oxidation and reduction processes) are evaluated by plotting the peak current versus a constant multiplied by the square root of the scan rate. The plots regression line gives a straight line with perfect correlation coefficient (100%) confirming that the redox process is reversible and diffusion controlled. The square of each slope gives the associated coefficient diffusion in cm^2 s^−1.
The apparent heterogeneous rate constant during oxidation (k^0′O)/and reduction (k^0′R) process was calculated using Gileadi's equation (C. Rüssel, W. Jaenicke, Electrochimica Acta, Vol 27, N° 12, 1745-1750, 1982) log k^0′=−0.48α+0.52 +log[(nFαvcD)/(2.303RT)]^1/2; vc is the critical scan rate, it is calculated by plotting the peak potentials versus the logarithm of the scan rates, and is more precise when a very wide range of scan rates is used, which is the case here (0.010 up to 20 V·s^−1), it is determined at the x-axis of the point of intersection of the regression lines drawn at low and high scan rates; a is the transfer coefficient that is supposed to be close to 0.5 for all presented compounds.
Peak-to-peak separation ΔEp values were determined from the third cycle of each cyclic voltammogram (FIGS. 1 and 2) and are gathered in the following table 4.
The standard redox process reversibility evaluation is performed in diluted state, at 5 mM of concentration, at pH 14 buffered with 1 M of KOH. […]

The nature of data set [4]: Solubility in aqueous solution at various pH by shake-flask method. Particulars: thermodynamic from solid.
Experimental: An aqueous solution (containing either KCl 1M, KOH 1M or H2SO4 1M) is added over 100 mg of compound by 20 μL portions until complete solubilization. We obtain an approximate range of solubility values calculated as following:
Smax˜(m/M)/V; m=mass of evaluated compound (g); M=molar mass of evaluated compound (g·mol^−1); V=added volume (L).
Setting [5] is: 0.2 M ARS, pH 14.0, Battery no 1, 60 mL, flowrate 0.5 mL/min/cm^2.
Where [6] appears, read: 0.2 M ARS, pH 14.0, Battery no 1, 60 mL, flowrate 5 mL/min/cm^2.
Setting [7] is: 0.2 M ARS, pH 14.0, Battery no 2, 120 mL, flowrate 0.5 mL/min/cm^2.
Setting [8] is: 0.2 M ARS, pH 14.0, Battery no 2, 120 mL, flowrate 5 mL/min/cm^2.
Setting [9] is: extrapolated from 5 days, flowrate 0.5 mL/min/cm^2, negolyte 120/120/40/370 mL.
The mark [10] stands for this setting: 0.3 M AQ-2,7-DS, pH 13.0, Battery no 3, 60 mL, flowrate 0.5 mL/min/cm^2.
The mark [11] stands for this setting: 0.3 M AQ-2,7-DS, pH 13.0, Battery no 3, 60 mL, flowrate 5 mL/min/cm^2.
The mark [12] stands for this setting: 0.3 M AQ-2,7-DS, pH 13.0, Battery no 4, 120 mL, flowrate 0.5 mL/min/cm^2.
Where [13] appears, read: 0.3 M AQ-2,7-DS, pH 13.0, Battery no 4, 120 mL, flowrate 5 mL/min/cm^2.
Where [14] appears, read: 0.3 M Complexone, pH 13.7, Battery no 5, 40 mL, flowrate 0.5 mL/min/cm^2.
The mark [15] stands for this setting: 0.3 M Complexone, pH 13.7, Battery no 5, 40 mL, flowrate 5 mL/min/cm^2.

On to `O=C1C=C(O)C(=O)C=C1O` [DHBQ], for which, in data set [1], the “DO × 10^−6” value is on record as 3.66 × 10^−6 cm^2/s and the “k^0′O × 10^−2” value is 0.21 × 10^−2 cm/s.

For `O=C1c2ccccc2C(=O)c2c1cc(S(=O)(=O)O)c(O)c2O` [ARS, 1,2-Dihydroxyanthraquinone-3-sulfonic acid sodium salt], the “Stability in cycles (−20%)” value in data set [2] (setting [5]) was 81 cycles; in data set [2] (setting [6]) it was 138 cycles; in data set [2] (setting [7]), 45 cycles; in data set [2] (setting [8]), 62 cycles; in data set [2] (setting [9]), 45 cycles. The “Stability in days (−20%)” value in data set [2] (setting [5]) is recorded as 3.5 days; in data set [2] (setting [6]), 6.4 days; in data set [2] (setting [7]) it was 3.8 days; in data set [2] (setting [8]), 6.6 days; in data set [2] (setting [9]), 3.5 days.

Take `O=C1c2ccccc2C(=O)c2c(OCCCS(=O)(=O)O)ccc(OCCCS(=O)(=O)O)c21` [Compound D3SH]: the “Solubility, solution at pH 0 (H2SO4 1M)” value is given as 0.73 M and the “Solubility, solution at pH 14 (KOH 1M)” value is recorded as 0.92 M. For the same compound, in data set [3] (pH 13 (KOH 0.1 M)), the “Peak-to-peak separation ΔEp” value is recorded as 246 mV. For the same compound, the “Peak-to-peak separation ΔEp” value in data set [3] (pH 14 (KOH 1 M)) is listed as 40 mV.

For the compound `O=C1c2ccc(S(=O)(=O)O)cc2C(=O)c2cc(S(=O)(=O)O)ccc21` [AQ-2,7-DS, Anthraquinone-2,7-disulfonic acid disodium salt], the “DO × 10^−6” value in data set [1] is reported as 3.8 × 10^−6 cm^2/s. In addition, in data set [1], the “k^0′O × 10^−2” value is 0.72 × 10^−2 cm/s. The “Stability in cycles (−20%)” value in data set [2] (setting [10]) is 563 cycles; in data set [2] (setting [11]) it was 378 cycles; in data set [2] (setting [12]), 0 cycles; in data set [2] (setting [13]), 173 cycles; in data set [2] (setting [9]), 0 cycles. In addition, the “Stability in days (−20%)” value in data set [2] (setting [10]) was 27.1 days; in data set [2] (setting [11]), 21.1 days; in data set [2] (setting [12]) it was 0.0 days; in data set [2] (setting [13]), 19.6 days; in data set [2] (setting [9]) it was 0.0 days. The “behaviour after decreasing the flowrate down to 0.5 mL/min/cm^2” value in data set [2] (constraints close to real systems, 0.3 M, pH 13.0) is “precipitates directly”.

Regarding `O=C1c2ccc(O)cc2C(=O)c2ccc(O)cc21` [DHAQ], in data set [1], the “DO × 10^−6” value was 4.8 × 10^−6 cm^2/s and the “k^0′O × 10^−2” value is given as 0.70 × 10^−2 cm/s.

As to `O=C1c2ccccc2C(=O)c2c(OCCCCS(=O)(=O)O)ccc(OCCCCS(=O)(=O)O)c21` [Compound D4SH], the “Solubility, solution at pH 0 (H2SO4 1M)” value stood at 0.91 M and the “Solubility, solution at pH 14 (KOH 1M)” value is 0.78 M. Also, in data set [3] (pH 13 (KOH 0.1 M)), the “Peak-to-peak separation ΔEp” value was determined as 390 mV. In data set [3] (pH 14 (KOH 1 M)), the “Peak-to-peak separation ΔEp” value amounted to 32 mV.

On to `O=C1c2ccccc2C(=O)c2c(OCCCCS(=O)(=O)[O-])ccc(O)c21.[Na+]` [Compound M4SNa], for which the “Solubility, solution at pH 0 (H2SO4 1M)” value was determined as 0.37 M and the “Solubility, solution at pH 14 (KOH 1M)” value is recorded as 0.88 M.

As for `O=C(O)CCCOc1ccc2c(c1)C(=O)c1ccc(OCCCC(=O)O)cc1C2=O` [DBEAQ], in data set [1], the “DO × 10^−6” value is recorded as 1.58 × 10^−6 cm^2/s and the “k^0′O × 10^−2” value is given as 0.70 × 10^−2 cm/s.

`O=C1c2ccccc2C(=O)c2c(OCCCS(=O)(=O)[O-])ccc(OCCCS(=O)(=O)[O-])c21.[Na+].[Na+]` [Compound D3SNa]: the “Solubility, solution at pH 0 (H2SO4 1M)” value is given as 0.15 M and the “Solubility, solution at pH 14 (KOH 1M)” value was 0.44 M.

In the case of `O=C(O)CCCOc1ccc(OCCCC(=O)O)c2c1C(=O)c1ccccc1C2=O` [Compound D3CH], the “Solubility, solution at pH 0 (H2SO4 1M)” value is given as 0.30 M and the “Solubility, solution at pH 14 (KOH 1M)” value is 0.42 M. Also, the “Peak-to-peak separation ΔEp” value in data set [3] (pH 13 (KOH 0.1 M)) was 267 mV. In data set [3] (pH 14 (KOH 1 M)), the “Peak-to-peak separation ΔEp” value is 46 mV.

`C[N+](C)(C)CCC[n+]1ccc(-c2cc[n+](CCC[N+](C)(C)C)cc2)cc1.[Cl-].[Cl-].[Cl-].[Cl-]` [BTMAP-Vi]: in data set [1], the “DO × 10^−6” value is 3.3 × 10^−6 cm^2/s and the “k^0′O × 10^−2” value was 2.2 × 10^−2 cm/s.

`O=C1c2ccc(OCCCP(=O)(O)O)cc2C(=O)c2ccc(OCCCP(=O)(O)O)cc21` [DPPEAQ]: the “DO × 10^−6” value in data set [1] is given as 1.37 × 10^−6 cm^2/s.

On to `O=C(O)CN(CC(=O)O)Cc1cc2c(c(O)c1O)C(=O)c1ccccc1C2=O` [Complexone, 3,4-Dihydroxyanthraquinon-2-yl-methylimino-diacetic acid], for which the entries for the “Stability in cycles (−20%)” value in data set [2] (setting [14]), in data set [2] (setting [15]) and in data set [2] (setting [9]) were 63 cycles, 69 cycles and 74 cycles, respectively. Moreover, the “Stability in days (−20%)” value in data set [2] (setting [14]) is listed as 3.2 days; in data set [2] (setting [15]), 3.4 days; in data set [2] (setting [9]), 3.3 days.

Take `O=C1c2ccccc2C(=O)c2c(O)ccc(O)c21` [Quinizarin, quinizarin]: the solubility in data set [4] (aqueous KOH 1M solution, pH 14, aqueous buffer) is < 50 mM.

`O=C1c2ccccc2C(=O)c2c(OCCCS(=O)(=O)O)ccc(O)c21` [Compound M3SH]: the “Solubility, solution at pH 0 (H2SO4 1M)” value came to 0.31 M and the “Solubility, solution at pH 14 (KOH 1M)” value worked out at 0.23 M. In addition, the “E^0′ apparent standard redox potential” value in data set [3] (5 mM, pH 14, 1 M KOH) is listed as −0.489 V vs NHE. Further, the E1/2 half-wave potential in data set [3] (5 mM, pH 14, 1 M KOH, RDE) is −0.489 V vs NHE. In addition, in data set [3] (Gileadi's equation), the “k^0′O × 10^−2 apparent heterogeneous rate constant” value is 3.1 × 10^−2 cm/s. Besides, the “DO × 10^−6 diffusion coefficient” value in data set [3] (Randles-Sevcik) is reported as 4.6 × 10^−6 cm^2/s. Besides, in data set [3] (pH 13 (KOH 0.1 M)), the “Peak-to-peak separation ΔEp” value is 97 mV. Also, the “Peak-to-peak separation ΔEp” value in data set [3] (pH 14 (KOH 1 M)) is 40 mV.

Take `Cc1cc2nc3c(=O)[nH]c(=O)nc-3n(C[C@H](O)[C@H](O)[C@H](O)COP(=O)([O-])O)c2cc1C.[Na+]` [Flavine FMN-Na]: in data set [1], the “DO × 10^−6” value is recorded as 1.3 × 10^−6 cm^2/s and the “k^0′O × 10^−2” value was 0.53 × 10^−2 cm/s.

`O=C1c2ccccc2C(=O)c2c(OCCCS(=O)(=O)O)ccc(O)c21` [Compound M3SNa]: the solubility turned out to be 460 mM (≈ 167 mg/mL) in data set [4] (aqueous H2SO4 1M solution, pH 0, aqueous buffer) and 320 mM (≈ 116 mg/mL) in data set [4] (unbuffered aqueous KCl 1M solution, saline or isotonic).
